Measurements as given in patent US4416871A, “Inhibition by peptides of tolerance to and physical dependence on morphine” (The United States of America as represented by the …, priority 1982, dated 1983).
“Also recorded” adds a separate entry of the source. Non-standard residues stand in square brackets, D forms with d. Residues, ends and D or L forms follow the SMILES beside them. No end group written: not given here. *: point of attachment. pGlu = O=C1CC[C@@H](C(=O)O)N1; Cbz = O=C(OCc1ccccc1)*

Legend:
[1] = literature, Life Sci., 19, 1331-1340; cited from earlier work
morphine-dependent mice [2] = experiment: Naloxone-precipitated withdrawal: body temperature and withdrawal signs; type: in vivo; details: for Withdrawal, % of control (jumping, shakes, diarrhea) / Δt, °C. (difference in body temperature just prior to naloxone and 30 min. thereafter): Table II, peptide 50 μg per mouse, naloxone 0.1 mg/kg; for Δt, °C. (difference in body temperature just prior to naloxone and 30 min. thereafter): mean ± SD; for ability to block development of physical dependence on morphine: naloxone-precipitated withdrawal, Tables II and III; for Withdrawal, % of control / Δt, °C. / lowest dose still effective in blocking physical dependence on morphine: Table III; for Withdrawal, % of control / Δt, °C.: dose 50 μg; for lowest dose still effective in blocking physical dependence on morphine: dose-response experiments
Experimental: The mice were randomly divided into two groups. One received SC injections of water (vehicle) while the other received the peptide under investigation (50 μg/mouse on day one). Two hours later the mice were further subdivided and each subgroup was implanted with placebo or morphine pellets. The injections of vehicle and peptide were repeated 24 and 48 hours after the first injection in their respective groups. Morphine pellets containing 75 mg of morphine free base were implanted subcutaneously (SC) between 10-11 A.M. and were removed 3 days later at the same time. The control animals were implanted with placebo pellets. Body temperature and weight were measured daily at 11 A.M. Temperature was measured using a lubricated rectal probe inserted 2.5 cm into the rectum and measured with a telethermometer (Model 43TA Yellow Springs Instrument Co., Yellow Springs, Ohio).
To determine the effects of peptide treatment on the development of physical dependence, the abstinence syndrome was precipitated using the morphine antagonist naloxone (Endo Laboratories Inc., N.Y.) at the appropriate dose (0.1, 0.25, or 0.50 mg/kg) injected intraperitoneally (IP) one hour following removal of morphine and placebo pellets. Pellet removal was performed 24 hours after the last peptide injection. These mice were monitored for changes in body temperature (see above) and body weight at 15 min. intervals for one hour after the naloxone injection. Effects of removing the pellets (withdrawing morphine) were also assessed by utilizing body temperature and weight as physical dependence parameters; however, these measurements were made at 2 hour intervals for 10 hours after the removal of the pellets. Placebo implanted mice were treated in the same manner as the morphine pellet implanted mice.

morphine-dependent mice [3] = experiment: as above; type: in vivo; details: Table III

Molecule	Withdrawal, % of control (jumping, shakes, diarrhea) (morphine-dependent mice [2])	Δt, °C. (difference in body temperature just prior to naloxone and 30 min. thereafter) (morphine-dependent mice [2])	other results
CC[C@H](C)[C@@H]1NC(=O)[C@H](Cc2ccc(O)cc2)NC(=O)[C@@H](N)CSSC[C@@H](C(=O)N2CCC[C@H]2C(=O)N[C@@H](CC(C)C)C(=O)NCC(N)=O)NC(=O)[C@H](CC(N)=O)NC(=O)[C@H](CCC(N)=O)NC1=O [oxytocin]	–	–	relative potency in facilitating development of physical dependence on and tolerance to morphine [1]: more effective than 8-arginine vasopressin
CC(C)C[C@H](NC(=O)[C@@H]1CCCN1C(=O)OCc1ccccc1)C(=O)NCC(=O)O [Z-Pro--Leu--Gly--COOH] (Cbz-Pro-Leu-Gly-OH)	100%	-1.20 ± 0.39 °C	–
Z-Pro--Leu--Gly--N(CH3)2	100%	-0.47 ± 0.15 °C	–
CC(C)C[C@@H]1NC(=O)[C@H](C)NC1=O [Cyclo(Leu--Ala)]	100%	-1.80 ± 0.96 °C	–
Cbz-Ala-Pro	100%	-1.20 ± 0.21 °C	–
O=C1N[C@@H](Cc2ccccc2)C(=O)N2CCC[C@@H]12 [Cyclo(Pro--Phe)]	20%	-0.13 ± 0.55 °C	ability to block development of physical dependence on morphine (morphine-dependent mice [2]): showed significant activity
Cbz-Pro-Leu	22%	+0.08 ± 0.93 °C	Withdrawal, % of control (morphine-dependent mice [3]; dose 0.5 μg): 100%; Δt, °C. (morphine-dependent mice [3]; dose 0.5 μg): -1.17 ± 0.17 °C; Withdrawal, % of control (morphine-dependent mice [3]; dose 5 μg): 0%; Δt, °C. (morphine-dependent mice [3]; dose 5 μg): +0.33 ± 0.26 °C; Withdrawal, % of control (morphine-dependent mice [2]): 18%; Δt, °C. (morphine-dependent mice [2]): +0.08 ± 0.93 °C; lowest dose still effective in blocking physical dependence on morphine (morphine-dependent mice [2]): 5 μg per mouse; ability to block development of physical dependence on morphine (morphine-dependent mice [2]): exhibited activity
Cbz-Pro-Phe	89%	-1.03 ± 0.55 °C	Withdrawal, % of control (morphine-dependent mice [3]; dose 0.05 μg): 100%; Δt, °C. (morphine-dependent mice [3]; dose 0.05 μg): -1.60 ± 0.69 °C; Withdrawal, % of control (morphine-dependent mice [3]; dose 0.5 μg): 100%; Δt, °C. (morphine-dependent mice [3]; dose 0.5 μg): -0.69 ± 0.22 °C; Withdrawal, % of control (morphine-dependent mice [3]; dose 5 μg): 100%; Δt, °C. (morphine-dependent mice [3]; dose 5 μg): -0.69 ± 0.24 °C; Withdrawal, % of control (morphine-dependent mice [2]): 99%; Δt, °C. (morphine-dependent mice [2]): -1.03 ± 0.55 °C
Z-Pro--D-Ala--DCHA	50%	-0.55 ± 0.90 °C	–
Cbz-Pro-Ala	63%	-0.74 ± 0.94 °C	–
Z-D-Pro--D-Leu	0%	+0.10 ± 0.56 °C	ability to block development of physical dependence on morphine (morphine-dependent mice [2]): exhibited activity
Cbz-Pro-Met	0%	+0.17 ± 0.23 °C	–
CC(C)C[C@H]1NC(=O)[C@@H]2CCCN2C1=O [Cyclo(Pro--D-Leu)]	40%	-0.24 ± 1.06 °C	–
Cbz-Pro-Ser	39%	-0.29 ± 0.73 °C	–
CC(C)C[C@H](NC(=O)[C@@H]1CCCN1C(=O)OCc1ccccc1)C(N)=O [Z-Pro--Leu--NH2] (Cbz-Pro-Leu-NH2)	100%	-0.95 ± 0.21 °C	–
Cbz-Pro-Ile	78%	-1.19 ± 0.91 °C	–
8-arginine vasotocin	–	–	relative potency in facilitating development of physical dependence on and tolerance to morphine [1]: more effective than 8-arginine vasopressin
Cbz-Pro-Gly	69%	-0.79 ± 0.78 °C	–
CC(C)C[C@H](NC(=O)[C@@H]1CCCN1C(=O)CNC(=O)OCc1ccccc1)C(=O)NCC(=O)O [Z-Gly--Pro--Leu--Gly--COOH] (Cbz-GPLG-OH)	22%	-0.07 ± 0.72 °C	–
CC(C)C[C@H](NC(=O)OCc1ccccc1)C(=O)NCC(N)=O [Z-Leu--Gly--NH2] (Cbz-Leu-Gly-NH2)	70%	-0.75 ± 0.72 °C	–
CC(C)C[C@@H]1NC(=O)CNC1=O [Cyclo(Leu--Gly), cyclo(leucyl-glycine)]	21%	-0.02 ± 0.83 °C	Withdrawal, % of control (morphine-dependent mice [3]; dose 0.05 μg): 20%; Δt, °C. (morphine-dependent mice [3]; dose 0.05 μg): +0.27 ± 0.70 °C; Withdrawal, % of control (morphine-dependent mice [3]; dose 0.5 μg): 0%; Δt, °C. (morphine-dependent mice [3]; dose 0.5 μg): +0.30 ± 0.29 °C; Withdrawal, % of control (morphine-dependent mice [3]; dose 5 μg): 0%; Δt, °C. (morphine-dependent mice [3]; dose 5 μg): +0.47 ± 0.32 °C; Withdrawal, % of control (morphine-dependent mice [2]): 18%; Δt, °C. (morphine-dependent mice [2]): -0.19 ± 0.58 °C; lowest dose still effective in blocking physical dependence on morphine (morphine-dependent mice [2]): ≤ 0.05 μg per mouse; ability to block development of physical dependence on morphine (morphine-dependent mice [2]): showed significant activity; also recorded: most potent peptides tested; relative potency in facilitating development of physical dependence on and tolerance to morphine [1]: as effective as oxytocin
Cbz-Pro-Tyr	0%	+0.13 ± 0.31 °C	–
Z-Pro--ΔPhe	22%	-0.36 ± 0.58 °C	–
CC(C)C[C@H](NC(=O)[C@@H]1CCC(=O)N1)C(=O)NCC(N)=O [[Glu--Leu--Gly--NH2] ([pGlu]-Leu-Gly-NH2)	44%	-0.27 ± 0.72 °C	–
Cbz-[dP]-Leu	14%	+0.17 ± 0.71 °C	ability to block development of physical dependence on morphine (morphine-dependent mice [2]): exhibited activity
Cbz-Pro-Val	63%	-0.44 ± 0.48 °C	–
Cbz-Pro-Glu	45%	-0.63 ± 0.88 °C	–
Cbz-Pro-Gln	0%	+0.08 ± 0.33 °C	–
